Measurements from ChEMBL document CHEMBL4428116, “Synthesis, molecular modeling and SAR study of novel pyrazolo[5,1-f][1,6]naphthyridines as CB2 receptor antagonists/inverse agonists” (Bioorg Med Chem, 2016).
Active and inactive are the calls of the source. The calls are words filed in the database; no cut-off is given here.

Tests used:
Mus musculus = organism: Mus musculus; test: Selectivity ratio of Ki for CB1 receptor in CD-1 mouse cerebellum membrane to Ki for CB2 receptor in CD-1 mouse spleen homogenate; format: cell membranes
Cannabinoid receptor 1 = Cannabinoid receptor 1 (Homo sapiens, UniProt P21554); test: Displacement of [3H]CP-55,940 from human CB1 receptor expressed in CHO cell membrane after 90 mins by scintillation counting method; format: cell membranes
Sequence of Cannabinoid receptor 1 (P21554 whole entry): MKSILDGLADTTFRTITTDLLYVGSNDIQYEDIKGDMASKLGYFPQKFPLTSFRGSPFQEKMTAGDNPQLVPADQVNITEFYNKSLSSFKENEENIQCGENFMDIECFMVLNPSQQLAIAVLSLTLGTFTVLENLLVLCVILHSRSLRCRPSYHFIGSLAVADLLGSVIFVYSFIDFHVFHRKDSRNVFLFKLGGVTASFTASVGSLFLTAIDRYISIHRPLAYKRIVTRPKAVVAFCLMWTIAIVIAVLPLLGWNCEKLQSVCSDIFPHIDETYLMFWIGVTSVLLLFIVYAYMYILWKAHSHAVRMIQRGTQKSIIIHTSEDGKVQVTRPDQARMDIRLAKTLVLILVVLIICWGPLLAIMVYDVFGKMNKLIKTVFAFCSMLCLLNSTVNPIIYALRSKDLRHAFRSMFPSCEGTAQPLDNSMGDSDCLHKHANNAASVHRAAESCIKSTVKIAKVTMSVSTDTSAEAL

Homo sapiens = organism: Homo sapiens; test: Selectivity ratio of Ki for human CB1 receptor expressed in CHO cell membrane to Ki for human CB2 receptor expressed in CHO cell membrane; format: cell-based
Cannabinoid receptor 2 [1] = target: T1, Cannabinoid receptor 2 (Homo sapiens, UniProt P34972); test: Displacement of [3H]CP-55,940 from human CB2 receptor expressed in CHO cell membrane after 60 mins by scintillation counting method; format: cell membranes
T1 sequence (P34972 whole entry): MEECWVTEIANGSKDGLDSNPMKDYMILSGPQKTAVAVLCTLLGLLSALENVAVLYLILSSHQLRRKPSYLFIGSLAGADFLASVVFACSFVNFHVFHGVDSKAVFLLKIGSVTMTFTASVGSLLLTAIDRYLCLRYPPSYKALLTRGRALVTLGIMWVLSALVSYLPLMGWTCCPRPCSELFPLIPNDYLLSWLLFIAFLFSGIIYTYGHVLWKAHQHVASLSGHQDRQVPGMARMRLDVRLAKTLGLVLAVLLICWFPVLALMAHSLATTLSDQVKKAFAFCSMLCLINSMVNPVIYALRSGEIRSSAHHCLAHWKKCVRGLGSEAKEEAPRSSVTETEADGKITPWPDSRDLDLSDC

Cannabinoid receptor 2 [2] = target: T1, Cannabinoid receptor 2; test: Antagonist activity at human CB2 receptor expressed in CHO cells assessed as inhibition of WIN 55,212-2-induced reduction in forskolin-stimulated cAMP accumulation at 0.1 to 10 uM by immunoassay; format: functional, cell-based
Cannabinoid receptor 2 [3] = target: T1, Cannabinoid receptor 2; test: Antagonist activity at human CB2 receptor expressed in CHO cells assessed as inhibition of WIN 55,212-2-induced reduction in forskolin-stimulated cAMP accumulation by Schild plot analysis; format: functional, cell-based
Cannabinoid receptor 2 [4] = target: T1, Cannabinoid receptor 2; test: Inverse agonist activity at human CB2 receptor expressed in CHO cells assessed as increase in forskolin-stimulated cAMP production at 1 to 10 uM by immunoassay; format: functional, cell-based
Cannabinoid receptor 2 [5] = target: T1, Cannabinoid receptor 2; test: Antagonist activity at human CB2 receptor expressed in CHO cells assessed as inhibition of WIN 55,212-2-induced reduction in forskolin-stimulated cAMP accumulation by immunoassay; format: functional, cell-based
Cannabinoid receptor 2 [6] = target: T1, Cannabinoid receptor 2; test: Inverse agonist activity at human CB2 receptor expressed in CHO cells assessed as increase in forskolin-stimulated cAMP production at 0.1 uM by immunoassay; format: functional, cell-based

## Cc1ccc2c(c1)Cc1c(C(=O)NN3CCCCC3)nn(-c3ccc(Cl)cc3Cl)c1-2
Mus musculus
  Ratio Ki: 9810

## CC1=C(C(=O)c2cccc3ccccc23)C2C=CC=C3OC[C@@H](CN4CCOCC4)N1C32 (stereo partly specified)
Cannabinoid receptor 1
  Ki: 13 nM
Homo sapiens
  Ratio Ki: 5.2

## Cc1ccc(-c2cc3ncccc3c3cc(C(=O)N[C@H]4C5(C)CCC(C5)C4(C)C)nn23)cc1 (stereo partly specified)
Cannabinoid receptor 1
  Ki: 2200 nM
Cannabinoid receptor 2 [1]
  Ki: 800 nM
Homo sapiens
  Ratio Ki: 2.7

## Cc1ccc(-c2cc3ncccc3c3cc(C(=O)NC4CCCCC4)nn23)cc1
Cannabinoid receptor 1
  Ki: > 10000 nM
Cannabinoid receptor 2 [1]
  Ki: 2130 nM
Homo sapiens
  Ratio Ki: > 4.7

## CC1(C)C2CC[C@@H](CNC(=O)c3cc4c5cccnc5cc(-c5ccc(Cl)cc5Cl)n4n3)C1C2 (stereo partly specified)
Cannabinoid receptor 1
  Ki: > 10000 nM
Cannabinoid receptor 2 [1]
  Ki: 67 nM
Homo sapiens
  Ratio Ki: > 149
Cannabinoid receptor 2 [2]
  inhibition: Active
Cannabinoid receptor 2 [3]
  Kb: 650 nM
Cannabinoid receptor 2 [4]
  Activity: Active

## Cc1ccc(-c2cc3ncccc3c3cc(C(=O)NC45CC6CC(CC(C6)C4)C5)nn23)cc1
Cannabinoid receptor 2 [5]
  inhibition: Dose-dependent effect
Cannabinoid receptor 1
  Ki: 5700 nM
Cannabinoid receptor 2 [1]
  Ki: 33 nM
Homo sapiens
  Ratio Ki: 173
Cannabinoid receptor 2 [3]
  Kb: 316 nM
Cannabinoid receptor 2 [6]
  Activity: Active

## Cc1ccc(-c2cc3ncccc3c3cc(C(=O)NN4CCCCC4)nn23)cc1
Cannabinoid receptor 1
  Ki: > 10000 nM
Cannabinoid receptor 2 [1]
  Ki: > 1000 nM

## Cc1ccc(-c2cc3ncccc3c3cc(C(=O)NC4C5CC(C[C@@H]4C)C5(C)C)nn23)cc1 (stereo partly specified)
Cannabinoid receptor 1
  Ki: > 10000 nM
Cannabinoid receptor 2 [1]
  Ki: 240 nM
Homo sapiens
  Ratio Ki: > 42

## Cc1ccc(-c2cc3ncccc3c3cc(C(=O)NC[C@@H]4CCC5CC4C5(C)C)nn23)cc1 (stereo partly specified)
Cannabinoid receptor 1
  Ki: > 10000 nM
Cannabinoid receptor 2 [1]
  Ki: 120 nM
Homo sapiens
  Ratio Ki: > 83

## Cc1ccc(-c2cc3ncccc3c3cc(C(=O)N[C@H]4CC5CCC4(C)C5(C)C)nn23)cc1 (stereo partly specified)
Cannabinoid receptor 1
  Ki: 7000 nM
Cannabinoid receptor 2 [1]
  Ki: 53 nM
Homo sapiens
  Ratio Ki: 132
Cannabinoid receptor 2 [2]
  inhibition: Active
Cannabinoid receptor 2 [3]
  Kb: 505 nM
Cannabinoid receptor 2 [4]
  Activity: Active

## Cc1ccc(-c2cc3ncccc3c3cc(C(=O)NC4C5CC6CC(C5)CC4C6)nn23)cc1 (stereo unspecified)
Cannabinoid receptor 1
  Ki: > 10000 nM
Cannabinoid receptor 2 [1]
  Ki: 133 nM
Homo sapiens
  Ratio Ki: > 75

## Cc1ccc(-c2cc3ncccc3c3cc(C(=O)N[C@@H]4C[C@H](C)CC[C@H]4C(C)C)nn23)cc1
Cannabinoid receptor 1
  Ki: 3300 nM
Cannabinoid receptor 2 [1]
  Ki: 280 nM
Homo sapiens
  Ratio Ki: 12
